Laboratory results from article PMC10547674, “Bioactive metabolites identified from Aspergillus terreus derived from soil” (AMB Express, 2023).
Values after ≈ are worked out from the molar mass of the structure shown. Like-named read-outs stand apart in the source and are kept apart here.

Legend:
[1] = system: Aspergillus niger NRRL-A326; assay: Agar disc diffusion; settings: for Zone of inhibition: A. niger, disc loaded with about 0.01mg; for zone of inhibition at 10 µg/disc: Aspergillus niger, NRRLA326
Experimental: (§8) Staphylococcus aureus ATCC 6538, Escherichia coli ATCC 25922, Candida albicans ATCC 10231and Aspergillus niger NRRL-A326 were supplied from Culture Collection Center. The antimicrobial activity of A. terreus extract and 1–4 was investigated by the agar disc diffusion method (Abdel-Wareth et al. [2019]). Nutrient agar (bacteria and yeast) and PDA (fungi) plates were seeded with 0.1 mL of 10^5–10^6 cells/mL then the filter paper discs (0.5 cm) were loaded with about 0.01mg from the extract and compounds, and put on the inoculated agar or PDA plates surface and stayed for 2–4 h at 4°C to reach maximum diffusion. After that, incubation of the plate at 30°C for 24 and 48 h for bacteria and fungi, respectively, to permit maximum growth then the inhibition zone diameter was measured in millimeters (mm). Experiments were carried out in triplicate.

[2] = system: Candida albicans ATCC 10231; assay: Agar disc diffusion; settings: disc loaded with about 0.01mg; for Zone of inhibition: C. albicans; for zone of inhibition at 10 µg/disc: Candida albicans, ATCC10231, C. albicans
Experimental: as §8

[3] = system: Staphylococcus aureus ATCC 6538; assay: Agar disc diffusion; settings: disc loaded with about 0.01mg; for Zone of inhibition: S. aureus; for zone of inhibition at 10 µg/disc: Staphylococcus aureus, ATCC6538, S. aureus
Experimental: as §8

[4] = system: Escherichia coli ATCC 25922; assay: Agar disc diffusion; settings: for Zone of inhibition: E. coli, disc loaded with about 0.01mg; for zone of inhibition at 10 µg/disc: Escherichia coli, ATCC25922
Experimental: as §8

MTT cell viability = format: cell-based, Murine; settings: mouse, RAW 264.7 cells
Experimental: (§1) Murine macrophage cells (RAW 264.7), supplied by American Type Culture Collection (ATCC), were grown on Dulbecco′s Modified Eagle Medium (DMEM), accompanied with 10%, […] and 100 μg/mL from bovine serum, penicillin, and streptomycin respectively. After that, cells were incubated in a CO2 atmosphere (5%, 37 °C) then they sub-cultured every 2 days and the cells of the exponential phase were used all over the procedure.
(§2) In vitro cytotoxicity assay kit MTT-based was purchased from Sigma- Aldrich, MTT cat No: M-5655, MTT solubilization solution: M-8910). RAW 264.7 cells (10,000/well) were plated in a 96-well plate then the test compounds (1–4) and the extract were diluted by a serial dilution technique (1000–4 μg/mL) were introduced and the plate was placed in a CO2 incubator (37 °C for 24 h). The cells were washed by DMEM and incubated with MTT solution (40 μL, 4 h). DMSO (180 μL) was used to solubilize the crystals of formazan and the produced color was measured at λ570 nm. The results were normalized against the control and the cell viability percentage was estimated as follows: %Cell viability=(Absorbance of sample/Absorbance of control)x100.

TNF-α [5] = assay: LPS-induced inflammatory model, TNF-α level by ELISA; format: cell-based, Murine; settings: LPS (500 ng/mL)-induced RAW 264.7, sample at ¼ IC50, ELISA of medium; LPS control 452.5 0 ± 46.1
Experimental: as §1
(§3) RAW 264.7 cells (1.8 × 10^5 cells/mL) were seeded for 18 h in a 24-well plate having DMEM medium (1 mL). […] Then, LPS (Sigma-Aldrich Cat No: L2630) (500 ng/mL, LPS control) was added to all treated and untreated wells to induce the inflammatory process. After incubation for 24 h, the media were taken and frozen till analysis. The untreated wells represented the LPS control group.
(§4) TNF- α quantitative assay ELISA kit (Abcam, ab181421 Human TNF alpha Simple Step) and Il-6 quantitative assay ELISA kit (Abcam, Ab178013 Human IL-6 Simple Step) were used to quantify IL-6 and TNF- α levels in the cell culture medium following the manufacturer′s instructions (Afshari et al. [2005]).

C. albicans = assay: MIC and MBC, resazurin microplate dilution; format: cell-based, Candida albicans
Experimental: (§5) The tested strains were cultivated in 100 mL bottles at 35 °C for 24 h on Mueller Hinton medium (Sigma-Aldrich, Germany). Bacteria and fungi cells (pellet) were collected by centrifugation at 5000 rpm, 4 °C, and under aseptic conditions, then washed with sterile saline till the supernatant became clear. […] Duplicate plates were prepared and incubated (37 °C, 18-24 h). The lowest concentration at which the color is changed is the MIC data, while MBC has been calculated by streaking two concentrations higher than MIC showing no growth ([…] et al. [2007]).

IL-6 [6] = assay: LPS-induced inflammatory model, IL-6 level by ELISA; format: cell-based, Murine; settings: LPS (500 ng/mL)-induced RAW 264.7, sample at ¼ IC50, ELISA of medium; LPS control 227.50 ± 29.2
Experimental: as §1, §3, §4

S. aureus = assay: MIC and MBC, resazurin microplate dilution; format: cell-based, Staphylococcus aureus
Experimental: as §5

[7] = target: ACE2/Spike (RBD) protein interaction (Homo sapiens, UniProt Q9BYF1); assay: ACE2: SARS-CoV-2 spike inhibitor screening colorimetric assay; format: binding
Sequence of ACE2/Spike (RBD) protein interaction (Q9BYF1 18-740): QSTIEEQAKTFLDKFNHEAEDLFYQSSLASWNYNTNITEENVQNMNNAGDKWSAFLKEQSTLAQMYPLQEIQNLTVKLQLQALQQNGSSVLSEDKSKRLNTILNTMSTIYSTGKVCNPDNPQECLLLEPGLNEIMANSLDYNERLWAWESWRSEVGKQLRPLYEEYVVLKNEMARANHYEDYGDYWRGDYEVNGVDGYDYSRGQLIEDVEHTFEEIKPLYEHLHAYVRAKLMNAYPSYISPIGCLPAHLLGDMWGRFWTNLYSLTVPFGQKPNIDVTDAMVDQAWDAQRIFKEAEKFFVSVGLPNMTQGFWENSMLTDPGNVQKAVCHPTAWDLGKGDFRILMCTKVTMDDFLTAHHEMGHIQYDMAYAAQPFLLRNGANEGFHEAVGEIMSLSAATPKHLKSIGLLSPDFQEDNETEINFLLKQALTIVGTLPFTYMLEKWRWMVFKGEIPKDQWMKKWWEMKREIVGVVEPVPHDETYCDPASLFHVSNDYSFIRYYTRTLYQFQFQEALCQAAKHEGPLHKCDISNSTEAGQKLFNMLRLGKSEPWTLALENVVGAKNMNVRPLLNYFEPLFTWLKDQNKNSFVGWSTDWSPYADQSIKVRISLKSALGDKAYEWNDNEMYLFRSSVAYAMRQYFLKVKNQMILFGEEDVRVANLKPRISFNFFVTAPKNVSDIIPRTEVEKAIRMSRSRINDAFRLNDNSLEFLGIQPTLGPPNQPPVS

RAW 264.7 cells = assay: MTT cell viability; format: cell-based, Murine; settings: 24 h
Experimental: as §1, §2

TNF-α [8] = assay: RT-PCR, TNF-α mRNA expression in LPS-stimulated RAW 264.7 cells; format: cell-based, Murine; settings: LPS-induced RAW 264.7, compared to LPS control
Experimental: as §3
(§6) RAW 264.7 cells were washed two times and then harvested in PBS (1 mL). Total RNA from the stimulated RAW 264.7 cells was extracted utilizing Qiagen RNA extraction (Qiagen, MD, USA) following the instructions of the procedure. cDNA was synthesized by iScript cDNA synthesis kit (Bio-Rad Laboratories Pty. Ltd, Gladesville, Australia). Rotorgene RT-PCR system (QIAGEN, Germany) was used for PCR amplification using BioRad cyber green PCR MMX (Bio-Rad Laboratories Pty. Ltd, Gladesville, Australia). The primers used for the amplification of IL-6, TNF-α, and β-actin genes are represented in Additional file 1: Table S4.
(§7) The Formula 2^−(ΔΔCt) was used to calculate the relative fold change between samples and control.

IL-6 [9] = assay: RT-PCR, IL-6 mRNA expression in LPS-stimulated RAW 264.7 cells; format: cell-based, Murine; settings: LPS-induced RAW 264.7, compared to LPS control
Experimental: as §3, §6, §7

[10] = RAW 264.7 macrophage cells, read-out: IC50 mean ± SD (cytotoxic effect)
[11] = RAW 264.7 macrophage cells, value given in µM, read-out: IC50 (cytotoxic effect) (converted)
[12] = read-out: IC50 mean ± SD (cytotoxic effect)
[13] = value given in µM, read-out: IC50 (cytotoxic effect) (converted)

Molecule: Neomycin [reference compound]
- Zone of inhibition [1]: 0 mm
- Zone of inhibition [2]: 23 mm
- Zone of inhibition [3]: 21 mm
- Zone of inhibition [4]: 8 mm

Molecule: CSC(O)(N1C(=O)CNC(=O)C1Cc1c[nH]c2ccccc12)N1C(=O)CC(=O)N2C(=O)c3cc(O)ccc3CC21 (stereo not shown) [Compound 4, asterrine]
- IC50 at 24 h (MTT cell viability; [10]): 449 ± 25.2 µg/mL
- IC50 at 24 h (MTT cell viability; [11]): 797 µM
- TNF-α mean ± SD (TNF-α [5]): 268.30 ± 3.43 pg/mL
- MIC (C. albicans; C. albicans): 250 µg/mL (≈ 444 µM)
- MBC (C. albicans; Candida albicans, C. albicans, read-out: MBC): 500 µg/mL (≈ 887 µM)
- MIC (C. albicans; Candida albicans, C. albicans, read-out: MIC): 250 µg/mL (≈ 444 µM)
- zone of inhibition at 10 µg/disc [1]: 0 mm
- IL-6, mean ± SD (IL-6 [6]): 129.00 ± 1.77 pg/mL
- Zone of inhibition [2]: 15 mm
- zone of inhibition at 10 µg/disc [2]: 11 to 22 mm
- Zone of inhibition [3]: 25 mm
- zone of inhibition at 10 µg/disc [3]: 19 to 25 mm
- zone of inhibition at 10 µg/disc [4]: 0 mm
- MBC (S. aureus; S. aureus): 250 µg/mL (≈ 444 µM)
- MBC (S. aureus; Staphylococcus aureus, S. aureus, read-out: MBC): 250 µg/mL (≈ 444 µM)
- MIC (S. aureus; Staphylococcus aureus, S. aureus, read-out: MIC): 125 µg/mL (≈ 222 µM)
- IC50 ([7]; tested 5–50 µg/mL, triplicates): 15.1 µM
- IC50 ([7]; value given in µM): 15.1 µM

Molecule: COC(=O)[C@]1(Cc2ccc(O)c(CC3OC3(C)C)c2)OC(=O)C(O)=C1c1ccc(O)cc1 (stereo partly shown) [Compound 3, butyrolactone III]
- IC50 mean ± SD (cytotoxic effect) (RAW 264.7 cells): 246.8 ± 13.9 µg/mL (≈ 560 µM)
- IC50 at 24 h (MTT cell viability; [12]): 246 µg/mL
- IC50 at 24 h (MTT cell viability; [13]): 561 µM
- zone of inhibition at 10 µg/disc [1]: 0 mm
- zone of inhibition at 10 µg/disc [2]: 0 mm
- zone of inhibition at 10 µg/disc [3]: 0 mm
- zone of inhibition at 10 µg/disc [4]: 0 mm
- IC50 ([7]; tested 5–50 µg/mL, triplicates): 21.6 µM
- IC50 ([7]; value given in µM): 21.6 µM

Molecule: C[C@@H]1C[C@@H]([C@H](O)CC2CC(=O)NC(=O)C2)C(=O)[C@@H](C)C1 [Cyclohexamide, reference compound]
- Zone of inhibition [1]: 29 mm
- Zone of inhibition [2]: 0 mm
- Zone of inhibition [3]: 0 mm
- Zone of inhibition [4]: 0 mm

Molecule: CCC/C=C\C/C=C\CCCCC(=O)OCC(COC(=O)CCCC/C=C\C/C=C\CCC)OC(=O)CCCC/C=C\CCCCC [Compound 1, 1,3-di-(6Z,9Z)-trideca-6,9-dienoyl-2-(6Z) dodec-6-enoyl glycerol]
- IC50 at 24 h (MTT cell viability; [10]): 858 µg/mL
- IC50 at 24 h (MTT cell viability; [11]): 1290 µM
- TNF-α mean ± SD (TNF-α [5]): 68.220 ± 3.09 pg/mL
- zone of inhibition at 10 µg/disc [1]: 0 mm
- IL-6, mean ± SD (IL-6 [6]): 51.63 ± 2.79 pg/mL
- zone of inhibition at 10 µg/disc [2]: 0 mm
- expression of TNF-α mRNA (TNF-α [8]): most activity
- zone of inhibition at 10 µg/disc [3]: 0 mm
- zone of inhibition at 10 µg/disc [4]: 0 mm
- IC50 ([7]; tested 5–50 µg/mL, triplicates): 16 µM
- IC50 ([7]; value given in µM): 15.8 µM

Molecule: COC(=O)[C@]1(Cc2ccc(O)c(CC=C(C)C)c2)OC(=O)C(O)=C1c1ccc(O)cc1 [Compound 2, butyrolactone I]
- IC50 mean ± SD (cytotoxic effect) (RAW 264.7 cells): 718.7 ± 40.4 µg/mL (≈ 1690 µM)
- IC50 at 24 h (MTT cell viability; [12]): 718 µg/mL
- IC50 at 24 h (MTT cell viability; [13]): 1690 µM
- TNF-α mean ± SD (TNF-α [5]): 87.97 ± 6.7 pg/mL
- MBC (C. albicans; Candida albicans): 250 µg/mL (≈ 589 µM)
- MIC (C. albicans; Candida albicans): 250 µg/mL (≈ 589 µM)
- zone of inhibition at 10 µg/disc [1]: 0 mm
- IL-6, mean ± SD (IL-6 [6]): 37.25 ± 0.87 pg/mL
- Zone of inhibition [2]: 11 mm
- zone of inhibition at 10 µg/disc [2]: 11 to 22 mm
- expression of IL-6 mRNA (IL-6 [9]): best inhibitory activity
- Zone of inhibition [3]: 19 mm
- zone of inhibition at 10 µg/disc [3]: 19 to 25 mm
- zone of inhibition at 10 µg/disc [4]: 0 mm
- MBC (S. aureus; Staphylococcus aureus): 250 µg/mL (≈ 589 µM)
- MIC (S. aureus; Staphylococcus aureus): 250 µg/mL (≈ 589 µM)
- IC50 ([7]; tested 5–50 µg/mL, triplicates): 29.4 µM
- IC50 ([7]; value given in µM): 29.5 µM
